PubChem BioAssay AID2745 (NMMLSC, 2010)
Activity calls are given as the source filed them. How the calls were made is not given here.

Assay: LAP4-GFP modulation potency in yeast, dose response, cell-based, MLPCN hits, flow cytometry (AID 2745);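 further: yeast exposed to compound for three hours at 30 degrees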
Conditions: S. cerevisiae LAP4-GFP reporter, flow cytometry fluorescence; at 33 µM (top of the series)

Compound | LAP4-GFP fluorescence (kMESF)
O/C=c1\ccc2cccc3nc(C(F)(F)F)nc1c23 | 15.8 kMESF (inactive)
CN(c1ccccc1)c1ccc(/C=c2\s/c(=C(/C#N)C(=O)C(C)(C)C)n(Cc3ccco3)c2=O)cc1 | 10.4 kMESF (inactive)
O=C(/C=C/c1cccc([N+](=O)[O-])c1)c1ccc([N+](=O)[O-])o1 | 2.78 kMESF (inactive)
CC(C)[C@@]1(c2ccc(Cl)cc2)ON(c2ccccc2C(F)(F)F)C1=O | 3.53 kMESF (inactive)
Nc1c(C(=O)c2cccs2)sc2nsc(SCCN3CCCCC3)c12 | -1.87 kMESF (inactive)
O=C(O)c1cc[c]([Hg][Cl])cc1 | 8.49 kMESF (inactive)
N#C/C(=C\c1ccccn1)c1nc2ccccc2s1 | 15.1 kMESF (inactive)
Oc1c(Br)cc(Br)cc1C=Nc1ccc2[nH]ncc2c1 | 13.1 kMESF (inactive)
CCc1ccc(/C=C/C(=O)c2cc(Br)ccc(=O)c2O)cc1 | 9 kMESF (inactive)
CC1=C(C)/C(=N\OS(=O)(=O)c2ccccc2)C=CC1=O | 9.73 kMESF (inactive)
CC(C)C[C@]1(c2ccccc2)ON(c2ccccc2C(F)(F)F)C1=O | 2.53 kMESF (inactive)
Cc1ccc(S(=O)(=O)N2CC(C(=O)O)=CC[C@H]2c2ccc(Cl)cc2)cc1 | 4.05 kMESF (inactive)
CCOc1ccc(N2C(=O)C(Cl)=C(Nc3ccccc3O)C2=O)cc1 | 5.81 kMESF (inactive)
CCC(C)/C(C)=N/NC(=O)c1ccc(COc2ccc(Cl)c(C)c2)cc1 (stereo not given) | 4.7 kMESF (inactive)
N/C(Cc1ccc(Cl)cc1Cl)=N\OC(=O)c1ccccc1 | 9.94 kMESF (inactive)
O=C(Nc1ccc(NC(=O)c2cc3ccccc3o2)cc1)c1ccco1 | 3.31 kMESF (inactive)
N#Cc1c2ccc([N+](=O)[O-])cc2[n+]([O-])n1-c1ccccc1 | 4.85 kMESF (inactive)
O=C(Oc1oc(-c2ccco2)nc1C=Nc1ccccc1)c1ccco1 | 23.7 kMESF (inactive)
Cc1cccc(N2C(=O)C(Cl)=C(Nc3c(C)n(C)n(-c4ccccc4)c3=O)C2=O)c1C | 6.11 kMESF (inactive)
CCN(CC(=O)Nc1cc(S(=O)(=O)N2CCOCC2)ccc1Cl)Cc1ccccc1 | 3.97 kMESF (inactive)
O=C(COc1c(Br)cc(Br)c2cccnc12)N1CCc2ccccc2C1 | 12.3 kMESF (inactive)
COC(=O)CCC(=O)OC1(C)C(=O)C2=COC(c3ccc(OC)cc3)=CC2=C(Br)C1=O (stereo not given) | 6.01 kMESF (inactive)

Compound | LAP4-GFP fluorescence (kMESF)
COc1cc(/C=C2\C(=O)ON=C2c2ccccc2)cc(Br)c1O | 14.7 kMESF (inactive)
O=C(CS(=O)c1ccccc1[N+](=O)[O-])Oc1ccc(Br)cc1 (stereo not given) | 21.8 kMESF (inactive)
COC(=O)CCCC1=CC2=CC(=O)C(C)(OC(=O)CCc3ccccc3)C(=O)C2=CO1 (stereo not given) | 3.13 kMESF (inactive)
CC[C@]1(c2ccccc2OC)ON(c2ccccc2C(F)(F)F)C1=O | 7.52 kMESF (inactive)
CSc1nnc2c3cc(F)ccc3n(C)c2n1 | 2.93 kMESF (inactive)
CCCc1nnc(NC(=O)c2c(O)c3cccc4c3n(c2=O)CCC4)s1 | 0.3 kMESF (inactive)
COc1ccc(N=Cc2nc(-c3ccccc3)oc2OC(C)=O)cc1 | 4.93 kMESF (inactive)
N/C(=N\OC(=O)c1ccccc1Cl)c1ccc(Cl)cc1 | 11.3 kMESF (inactive)
C#CCOc1c(Br)cc(/C=C2/C(=O)ON=C2C)cc1OC | 12.2 kMESF (inactive)
CC(=O)Nc1ncnc2c1c(-c1ccc(Cl)cc1)nn2C(C)(C)C | 5.09 kMESF (inactive)
COc1ccc(NC2=C(Cl)C(=O)N(CCc3ccccc3)C2=O)cc1 | 5.81 kMESF (inactive)
Cn1ncc2c(O/N=C(\N)c3ccc(C(C)(C)C)cc3)ncnc21 | 5.61 kMESF (inactive)
CCCc1ccc(OCC(=O)NNC(=S)NC(=O)c2ccco2)cc1 | 11.2 kMESF (inactive)
Cc1ccc(C(CC(=O)O)NC(=O)c2ccc(S(=O)(=O)N3CC(C)OC(C)C3)cc2)cc1 (stereo not given) | 3.28 kMESF (inactive)
CC(=O)Oc1ccc(N2C(=O)C3C4C=CC(O4)C3C2=O)cc1 (stereo not given) | 6.57 kMESF (inactive)
O=C1c2cccc3c([N+](=O)[O-])ccc(c23)C(=O)N1O | 3.64 kMESF (inactive)
CCN(CC(=O)NC(C)(C)C)C(=O)COc1c(Cl)cc(Cl)c2ccc(C)nc12 | 11.7 kMESF (inactive)
Oc1ccc2ccccc2c1/C=N/Nc1nnc(-c2ncc[nH]2)c2ccccc12 | -7.45 kMESF (inactive)
CCC(=O)Oc1oc(-c2ccccc2)nc1C=Nc1ccc(C)cc1 | 4.73 kMESF (inactive)
CCCCNc1c2c3c(cccc3n(C)c1=O)C(=O)c1ccccc1-2 | 11.2 kMESF (inactive)
COc1ccc(NC(=O)/C(C#N)=C/c2ncc([N+](=O)[O-])n2C)c(OC)c1 | 9.76 kMESF (inactive)
COc1ccc(C=C2C(=O)c3ccccc3C2=O)cc1O | 3.24 kMESF (inactive)

Compound | LAP4-GFP fluorescence (kMESF)
Cc1[nH]n(-c2ncc(-c3ccccc3)s2)c(=O)c1C(c1ccc(Cl)cc1)C(C#N)C#N (stereo not given) | 8.02 kMESF (inactive)
CC(=O)[C@]1(O)Cc2c(O)c3c(c(O)c2[C@@H](O[C@H]2C[C@H](N)[C@H](O)[C@H](C)O2)C1)C(=O)c1ccccc1C3=O | 9.67 kMESF (inactive)
COc1cc(C=C2C(=O)c3ccccc3C2=O)cc(OC)c1OC | 4.04 kMESF (inactive)
O=C(O)C1Sc2[nH]c(=O)sc2C2c3cc(Br)ccc3OC(=O)C12 (stereo not given) | 5.82 kMESF (inactive)
CC(C)(C)c1cc(C(c2cccnc2)N2CCN(CCO)CC2)cc(C(C)(C)C)c1O (stereo not given) | 7.26 kMESF (inactive)
O=c1cc(-c2ccccc2)cc(-c2ccccc2)n1O | 5.91 kMESF (inactive)
C#CCOCCOCCOCCNc1nc(N2CCN(C(=O)CCCCCCCCCCNC(=O)[C@H](CCCCN)n3cc(CCO)nn3)CC2)nc(N2CCN(C(=O)CCCCCCCCCCNC(=O)[C@H](CCCN=C(N)N)n3cc(C[C@@H](C)CC)nn3)CC2)n1 | 6.17 kMESF (inactive)
Cc1ccc(NC(=O)c2cc(N3C(=O)C=CC3=O)ccc2Cl)cc1C | 4.75 kMESF (inactive)
COc1ccc(-c2cc3nc4n(c(=O)c3s2)CCC4)cc1 | 3.68 kMESF (inactive)
COc1cc(NC(=O)c2ccccc2[N+](=O)[O-])ccc1NC(=O)c1cc2ccccc2o1 | 3.31 kMESF (inactive)
O=C(Oc1ccnc2cc(Cl)ccc12)N1CCOCC1 | 2.63 kMESF (inactive)
Cc1ccccc1OCCOC(=O)c1ccc(S(=O)(=O)N2CCCC2)cc1 | 3.13 kMESF (inactive)
Nc1nc2ncc(CNc3ccc(C(=O)N[C@@H](CCC(=O)O)C(=O)O)cc3)nc2c(=O)[nH]1 | 4.01 kMESF (inactive)
CCCN1CCc2c(sc(NC(=S)NC(=O)c3ccccc3)c2C#N)C1 | 7.91 kMESF (inactive)
CCc1nc2ccccc2c(=O)n1NC(=O)c1c(O)c2ccccc2n(CC)c1=O | 3.31 kMESF (inactive)
O=C(c1ccc(Cl)c([N+](=O)[O-])c1)N1CCN(c2ccccc2)CC1 | 8.26 kMESF (inactive)
COc1ccc(-c2cc(C(F)(F)F)nc(S(C)(=O)=O)n2)cc1 | 10.6 kMESF (inactive)
COc1cc(CNC(=O)CCCCCCC(C)C)ccc1O | 3.74 kMESF (inactive)
O=C(NC(=S)Nc1ccc2oc(=O)ccc2c1)c1cccc(Cl)c1 | 3.47 kMESF (inactive)
O=C1ON=C(c2ccc(Cl)cc2)/C1=C/c1ccc(O)cc1 | 6.72 kMESF (inactive)
CN(C)c1ccc(/C=C/c2cc[n+](C)cc2)cc1 | 1.33 kMESF (inactive)
Cc1ccc(/C=c2\sc3nc(-c4cccs4)nn3c2=O)o1 | 7.32 kMESF (inactive)

Compound | LAP4-GFP fluorescence (kMESF)
CC(C)[C@]1(c2ccc(Cl)cc2)ON(c2ccccc2C(F)(F)F)C1=O | 3.43 kMESF (inactive)
N/C(=N\OC(=O)c1ccc(Cl)cc1Cl)c1ccccc1 | 12.4 kMESF (inactive)
O=C(O)c1ccc(COc2ccccc2C=C2C(=O)c3ccccc3C2=O)cc1 | 4.11 kMESF (inactive)
CC(c1ccccc1)N1C(=O)/C(=C/c2ccncc2)SC1=S (stereo not given) | 11.3 kMESF (inactive)
Nc1ccc2ccc3cccc[n+]3c2c1 | 10.3 kMESF (inactive)
CC(=O)n1cc(C(C[N+](=O)[O-])SCCN)c2ccccc21 (stereo not given) | 4.35 kMESF (inactive)
O=[N+]([O-])c1c(Nc2ccccn2)cc(Cl)c2nonc12 | 36.2 kMESF (inactive)
C[C@@H]1C[C@@H]([C@H](O)CC2CC(=O)NC(=O)C2)C(=O)[C@@H](C)C1 | 6.31 kMESF (inactive)
CCn1c(/C=C/c2ccc([N+](=O)[O-])o2)nc2ccccc2c1=O | -69.5 kMESF (inactive)
O=C(C#Cc1cccc([N+](=O)[O-])c1)c1ccccc1 | 8.01 kMESF (inactive)
Cc1ccc(C)c(/C=C/C(=O)c2ccccc(=O)c2O)c1 | -0.2 kMESF (inactive)
C[n+]1ccc(/C=C/c2c[nH]c3ccccc23)cc1 | 9.29 kMESF (inactive)
COc1ccc(/C=C2/C(=O)ON=C2c2ccccc2)cc1OC | 14 kMESF (inactive)
CCOC(=O)c1c(C)oc2c1c(C(c1cccnc1)N1CCOCC1)c(O)c1ccccc12 (stereo not given) | 4.07 kMESF (inactive)
CN1C(=O)/C(=N\OC(=O)c2cccc3ccccc23)c2ccccc21 | 7.11 kMESF (inactive)
O=[N+]([O-])c1ccc(S(=O)(=O)c2ccccc2)nc1 | 9.63 kMESF (inactive)
O=C(O)c1ccc2c(c1)C(=O)/C(=C/c1ccccc1)C2=O | 3.53 kMESF (inactive)
Cc1cc(NC(c2ccc(Cl)cc2)c2ccc3cccnc3c2O)no1 (stereo not given) | 11.2 kMESF (inactive)
O=C(NC(=S)NNC(=O)[C@H]1C[C@@H]1c1ccccc1)c1cccc(F)c1 | 17.8 kMESF (inactive)
